Tested on: mites
Experiment: Field trial of mite control on field beans variety Paloma, foliar spray
Type: in vivo
Conditions: for Observed, % control of mites 6DAA3: 6 days after application 3, rate g/ha: abamectin 6.7, cyflumetofen 150, combination 6.7 & 150, percentage compared to non-treated control; for Observed, % control of mites 14DAA3: fourteen days after application 3, rate g/ha: abamectin 6.7, cyflumetofen 150, combination 6.7 & 150, percentage compared to non-treated control; for Observed, % control of mites 6DAA1: six days after application 1, rate g/ha: abamectin 6.7, cyflumetofen 150, combination 6.7 & 150, percentage compared to non-treated control; for Observed, % control of mites 6DAA2: six days after application 2, rate g/ha: abamectin 6.7, cyflumetofen 150, combination 6.7 & 150, percentage compared to non-treated control
Description: The action to be expected E for a given active ingredient combination obeys the so-called COLBY formula and can be calculated as follows (COLBY, S. R. “Calculating synergistic and antagonistic responses of herbicide combination”. Weeds, Vol. 15, pages 20-22; 1967): • ppm=milligrams of active ingredient (=a.i.) per liter of spray mixture • X=% action by active ingredient A) using p ppm of active ingredient • Y=% action by active ingredient B) using q ppm of active ingredient.
According to COLBY, the expected (additive) action of active ingredients A)+B) using p+q ppm of active ingredient is
If the action actually observed (O is greater than the expected action (E), then the action of the combination is super-additive, i.e. there is a synergistic effect.
Trials are conducted on field beans variety Paloma to determine the effects of the present combination.
The trials are carried out on a plot is 1 m^2, with three replicates for each trial and spray volume ranges from 1500-1600 l/ha.
The first application of the pesticide formulation (whether solo or combination) is at pest threshold as foliar spray (at 35 days after planting). Thereafter the second and third foliar applications are at 42 and 49 days after planting.
The assessment of the mite control is carried out on the basis of number of mites on five leaves for each plot at the times indicated in the table (i.e., six days after application 1 (6DAA1), six days after application 2 (6DAA2), 6 days after application 3 (6DAA3), and fourteen days after application 3 (14DAA3)). The values are given as a percentage compared to a non-treated control.
The Table below also provides the expected % control for the combination based on the Colby formula.

| Molecule | Observed, % control of mites 6DAA3 [%] | Observed, % control of mites 14DAA3 [%] | Observed, % control of mites 6DAA1 [%] | Observed, % control of mites 6DAA2 [%] |
| --- | --- | --- | --- | --- |
| COCCOC(=O)C(C#N)(C(=O)c1ccccc1C(F)(F)F)c1ccc(C(C)(C)C)cc1 (centres unmarked) [cyflumetofen] | 26 | 32 | 79 | 64 |
| abamectin | 59 | 66 | 92 | 32 |

Source: patent US8598130B2, “Insecticidal combinations” (priority 2008, dated 2013)
